Test results reported in patent US11447466B2, “Substituted indole compounds useful as inhibitors of TLR7/8/9” (BRISTOL-MYERS SQUIBB COMPANY, priority 2017, dated 2022).

Columns and labels:
Type in all cases: cell-based
human TLR7 = target: T1, human TLR7 (Homo sapiens, UniProt Q9NYK1); experiment: TLR7 inhibition reporter assay (HEK-Blue SEAP reporter, gardiquimod stimulation); conditions: HEK-Blue cells overexpressing human TLR7, SEAP reporter, gardiquimod 7.5 μM, 22 hour incubation
T1 construct: host or cells: HEK-Blue cells
T1 sequence (Q9NYK1 27-1049): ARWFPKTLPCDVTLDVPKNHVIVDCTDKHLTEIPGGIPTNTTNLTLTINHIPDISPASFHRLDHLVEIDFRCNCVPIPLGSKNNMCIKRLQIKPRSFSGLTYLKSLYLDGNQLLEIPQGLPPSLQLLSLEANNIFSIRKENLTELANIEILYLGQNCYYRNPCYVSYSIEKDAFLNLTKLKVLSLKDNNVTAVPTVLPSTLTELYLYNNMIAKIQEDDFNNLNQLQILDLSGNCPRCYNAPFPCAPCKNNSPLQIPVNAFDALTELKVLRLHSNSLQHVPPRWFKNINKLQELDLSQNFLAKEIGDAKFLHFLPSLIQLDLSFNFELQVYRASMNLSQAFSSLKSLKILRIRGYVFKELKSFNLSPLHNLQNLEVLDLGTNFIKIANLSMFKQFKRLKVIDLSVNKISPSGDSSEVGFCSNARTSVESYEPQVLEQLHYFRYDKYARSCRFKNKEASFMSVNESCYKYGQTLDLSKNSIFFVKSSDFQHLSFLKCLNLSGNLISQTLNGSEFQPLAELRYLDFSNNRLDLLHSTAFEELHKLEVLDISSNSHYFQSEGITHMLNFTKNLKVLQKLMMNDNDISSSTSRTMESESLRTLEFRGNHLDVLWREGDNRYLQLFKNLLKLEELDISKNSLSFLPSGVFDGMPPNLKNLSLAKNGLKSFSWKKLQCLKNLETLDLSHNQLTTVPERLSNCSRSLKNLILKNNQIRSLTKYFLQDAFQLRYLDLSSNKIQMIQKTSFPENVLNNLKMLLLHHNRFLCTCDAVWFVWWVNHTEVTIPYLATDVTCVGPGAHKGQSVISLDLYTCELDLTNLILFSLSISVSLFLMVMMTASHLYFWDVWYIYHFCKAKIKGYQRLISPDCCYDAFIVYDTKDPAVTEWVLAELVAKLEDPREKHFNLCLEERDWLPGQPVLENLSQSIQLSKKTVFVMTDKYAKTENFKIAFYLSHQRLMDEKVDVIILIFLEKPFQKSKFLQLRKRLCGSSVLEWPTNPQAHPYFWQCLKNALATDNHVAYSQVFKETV
How it was run: (§1)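 Compound treatment: 30 min, RT, 0.05 nM–50 μM final. Agonist: TLR7 gardiquimod 7.5 μM; TLR8 R848 15.9 μM; TLR9 ODN2006 5 nM. Incubation 22 h, 37 °C, 5% CO2. Readout SEAP, HEK-Blue Detection.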

human TLR8 = target: T2, human TLR8 (Homo sapiens, UniProt Q9NR97); experiment: TLR8 inhibition reporter assay (HEK-Blue SEAP reporter, R848 stimulation); conditions: HEK-Blue cells overexpressing human TLR8, SEAP reporter, R848 15.9 μM, 22 hour incubation
T2 construct: host or cells: HEK-Blue cells
T2 sequence (Q9NR97 27-1041): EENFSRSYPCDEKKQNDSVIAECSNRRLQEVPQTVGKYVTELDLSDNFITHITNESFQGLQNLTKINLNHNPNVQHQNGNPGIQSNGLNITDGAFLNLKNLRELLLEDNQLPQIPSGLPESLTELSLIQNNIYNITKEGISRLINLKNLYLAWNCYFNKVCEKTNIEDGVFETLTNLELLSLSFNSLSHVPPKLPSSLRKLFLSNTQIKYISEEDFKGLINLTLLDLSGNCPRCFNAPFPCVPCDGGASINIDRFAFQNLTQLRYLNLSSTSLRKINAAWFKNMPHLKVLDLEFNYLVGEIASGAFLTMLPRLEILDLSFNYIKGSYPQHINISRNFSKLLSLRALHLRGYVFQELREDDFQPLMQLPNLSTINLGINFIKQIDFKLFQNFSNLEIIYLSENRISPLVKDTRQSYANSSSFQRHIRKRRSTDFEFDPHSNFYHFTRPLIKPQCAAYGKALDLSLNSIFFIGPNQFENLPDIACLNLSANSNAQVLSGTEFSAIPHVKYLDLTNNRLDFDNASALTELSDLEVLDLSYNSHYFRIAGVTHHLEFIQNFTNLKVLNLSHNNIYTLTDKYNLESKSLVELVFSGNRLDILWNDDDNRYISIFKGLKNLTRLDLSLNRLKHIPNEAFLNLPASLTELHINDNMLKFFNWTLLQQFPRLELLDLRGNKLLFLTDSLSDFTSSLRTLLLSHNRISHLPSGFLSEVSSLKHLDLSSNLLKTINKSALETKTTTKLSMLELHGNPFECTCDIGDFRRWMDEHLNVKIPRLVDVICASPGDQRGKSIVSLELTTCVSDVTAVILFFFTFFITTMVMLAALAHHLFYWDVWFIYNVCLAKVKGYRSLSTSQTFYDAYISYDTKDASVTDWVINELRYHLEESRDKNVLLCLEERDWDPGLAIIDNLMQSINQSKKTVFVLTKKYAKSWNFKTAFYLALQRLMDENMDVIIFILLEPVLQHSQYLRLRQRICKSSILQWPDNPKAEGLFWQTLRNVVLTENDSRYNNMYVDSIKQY
How it was run: as §1

human TLR9 = target: T3, human TLR9 (Homo sapiens, UniProt Q9NR96); experiment: TLR9 inhibition reporter assay (HEK-Blue SEAP reporter, ODN2006 stimulation); conditions: HEK-Blue cells overexpressing human TLR9, SEAP reporter, ODN2006 5 nM, 22 hour incubation
T3 construct: host or cells: HEK-Blue cells
T3 sequence (Q9NR96 26-1032): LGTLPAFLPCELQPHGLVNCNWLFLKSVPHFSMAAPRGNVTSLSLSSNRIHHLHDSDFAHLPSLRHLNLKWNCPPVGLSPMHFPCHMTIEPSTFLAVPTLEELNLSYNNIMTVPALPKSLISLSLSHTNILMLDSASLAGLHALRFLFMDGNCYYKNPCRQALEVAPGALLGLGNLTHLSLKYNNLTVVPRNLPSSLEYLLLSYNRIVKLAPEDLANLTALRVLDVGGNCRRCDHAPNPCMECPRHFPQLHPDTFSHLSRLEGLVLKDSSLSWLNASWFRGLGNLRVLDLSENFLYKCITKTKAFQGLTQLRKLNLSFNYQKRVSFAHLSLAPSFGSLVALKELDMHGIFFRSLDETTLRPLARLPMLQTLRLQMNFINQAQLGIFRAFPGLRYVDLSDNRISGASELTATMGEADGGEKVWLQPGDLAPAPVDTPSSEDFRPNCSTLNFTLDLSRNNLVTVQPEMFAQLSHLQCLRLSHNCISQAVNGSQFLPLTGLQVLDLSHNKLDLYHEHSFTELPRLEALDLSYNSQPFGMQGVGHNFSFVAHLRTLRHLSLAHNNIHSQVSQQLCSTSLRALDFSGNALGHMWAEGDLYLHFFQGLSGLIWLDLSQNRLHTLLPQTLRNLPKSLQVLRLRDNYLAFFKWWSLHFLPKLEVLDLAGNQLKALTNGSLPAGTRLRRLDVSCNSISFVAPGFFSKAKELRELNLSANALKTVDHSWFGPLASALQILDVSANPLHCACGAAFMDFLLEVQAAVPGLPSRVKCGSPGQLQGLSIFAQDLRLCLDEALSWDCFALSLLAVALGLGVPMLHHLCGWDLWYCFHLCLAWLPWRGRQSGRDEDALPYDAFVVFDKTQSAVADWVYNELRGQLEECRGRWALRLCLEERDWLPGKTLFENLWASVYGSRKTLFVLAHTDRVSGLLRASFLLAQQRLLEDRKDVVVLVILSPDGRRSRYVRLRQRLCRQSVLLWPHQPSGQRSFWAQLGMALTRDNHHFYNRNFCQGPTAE
How it was run: as §1

IC50 (human TLR7) [nM] | IC50 (human TLR8) [nM] | IC50 (human TLR9) [nM] | Structure (SMILES)
14.5 | 72.6 | 782 | COCCN1CCC(c2ccc3[nH]c(-c4cc(-c5ccc(C)nc5)c(=O)n(C)c4)c(C(C)C)c3c2)CC1 [Example 349, 5-(3-isopropyl-5-(1-(2-methoxyethyl)piperidin-4-yl)-1H-indol-2-yl)-1,6′-dimethyl-[3,3′-bipyridin]-2(1H)-one]
14.4 | 1.4 | 2140 | COCCN1CCC(c2ccc3[nH]c(-c4cc(-c5cnn(C)c5)c(=O)n(C)c4)c(C(C)C)c3c2)CC1 [Example 350, 5-(3-isopropyl-5-(1-(2-methoxyethyl)piperidin-4-yl)-1H-indol-2-yl)-1-methyl-3-(1-methyl-1H-pyrazol-4-yl)pyridin-2(1H)-one]
78.5 | 135 | 11900 | COCc1cc(-c2[nH]c3ccc(C4CCN(CC(=O)N(C)C)CC4)cc3c2C(C)C)cn(C)c1=O [Example 351, 2-(4-(3-isopropyl-2-(5-(methoxymethyl)-1-methyl-6-oxo-1,6-dihydropyridin-3-yl)-1H-indol-5-yl)piperidin-1-yl)-N,N-dimethylacetamide]
21.5 | 31.5 | 2420 | C=Cc1cc(-c2[nH]c3ccc(C4CCN(CC(=O)N(C)C)CC4)cc3c2C(C)C)cn(C)c1=O [Example 352, 2-(4-(3-isopropyl-2-(1-methyl-6-oxo-5-vinyl-1,6-dihydropyridin-3-yl)-1H-indol-5-yl)piperidin-1-yl)-N,N-dimethylacetamide]
